Experimental data from US8518373B2, “Ionic and non-ionic radiographic contrast agents for use in combined X-ray and nuclear magnetic resonance diagnostics” (priority 2001, dated 2013).
Where two headings read alike, the source gives them in different places.

What was measured:
[1] = cited from earlier work
[2] = cited from earlier work; remark: listed apart in the source
[3] = rabbit, in vivo, cited from earlier work
[4] = residual water signal after irradiating the amido protons, effect of radiofrequency field intensity, 200 mM Iopamidol; conditions: for % residual signal: 200 mM, pH 6.29, 2.1 T, 39° C., rf field at 9.4 ppm
Procedure: A 200 Mm Iopamidol solution at pH=6.29 was investigated at 2.1 T magnetic field intensity and at a temperature of 39° C. (JEOL EX-90 spectrometer). Considering 100 the area of the water signal with irradiation at −9.4 ppm, its decrease (expressed as % residual signal) was evaluated in the presence of a rf field tuned at 9.4 ppm (signal of the amido protons).

[5] = dog, in vivo; cited from earlier work
[6] = residual water signal after irradiating the amido proton signal, effect of temperature, 200 mM Iopamidol; conditions: pH 6.74, 2.1 T, irradiation at 9.4 ppm, attenuation 300 dB
Procedure: A 200 mM Iopamidol solution at pH=6.74 was investigated at 2.1 T magnetic field intensity (JEOL EX-90 spectrometer). After irradiating the amido proton signal at 9.4 ppm, with attenuation of 300 dB, the area under the water signal was measured. Considering 100 the area of the water signal with irradiation at −9.4 ppm, a drastic reduction is observed following irradiation of the amido protons. The effect increases as temperature increase so that: […]

[7] = Z-spectra and Saturation transfer (ST) profiles of aqueous solutions in MT imaging; conditions: 7 T, pH 7.4, 312 K, 30 mM (Gd-DTPA 1 mM)
Procedure: The Magnetization Transfer or, more precisely, the amount of saturation transfer (ST) registered in a MT based MRI procedure following irradiation of the mobile proton(s), is conveniently quantified as ST % according to the following equation (2) ST %=100×(1−Ms/M0) (2)
In a first series, tests were conducted at physiological pH and temperature. A second series of tests were conducted at acidic pH.
In the first series of tests, Z-spectra and corresponding Saturation transfer (ST) profiles were measured at 7 T, pH 7.4 and 312 K, for aqueous solutions of iopamidol (30 mM), L-amino acids alanine, glutamine and lysine (each 30 mM), Gd-DTPA (1 mM) and Iopamidol (30 mM).

In the case of `O=C1NCCN1` [2-Imidazolidinone], the LD50 intraperitoneal mouse ([1]; intraperitoneal, mouse) is given as 500 mg/kg.

In the case of `O=C1CC(=O)NC(=O)N1` [Barbituric Acid], the “LD50 orally in male rats” value ([2]; oral, male rats) is listed as > 5000 mg/kg.

For `N=C(N)N` [Guanidine], the “LD orally in rabbits” value ([3]; po) is given as 500 mg/kg.

For `C[C@H](O)C(=O)Nc1c(I)c(C(=O)NC(CO)CO)c(I)c(C(=O)NC(CO)CO)c1I` [Iopamidol], the “reduction of the signal from water in MRI saturation transfer” value ([4]; 2.1 T magnetic field) was 80%, the “% residual signal” value ([4]; attenuation 300 dB) was 15% and the “% residual signal” value ([4]; attenuation 400 dB) was 40%. The LD50 in dogs [5] was 34700 mg/kg, the LD50 in rabbits [3] was 19600 mg/kg and the “% residual signal” value ([6]; 15° C.) was 39%. The “% residual signal” value ([6]; 25° C.) was 30%, the “% residual signal” value ([6]; 39° C.) was 24% and the LD50 in mice ([1]; mouse, in vivo) was 44.5 g/kg. The LD50 in rats ([2]; rat, in vivo) was 28.2 g/kg.

For `N=C(N)NCCC[C@H](N)C(=O)O` [L-Arginine], the LD50 intravenous mouse ([1]; mouse, in vivo, iv) is listed as 2030 mg/kg.

With `C[C@H](N)C(=O)O` [L-alanine] the “Saturation Transfer Value pH = 7.4” value [7] was 0 and the “Saturation Transfer Value pH = 7.4” value ([7]; listed as alanine) was “failed to provide any detectable signals”.

In the case of `NCCCC[C@H](N)C(=O)O` [L-lysine], the “Saturation Transfer Value pH = 7.4” value [7] is reported as 0 and the “Saturation Transfer Value pH = 7.4” value ([7]; listed as lysine) is reported as “failed to provide any detectable signals”.

In the case of `CC(=O)Nc1c(I)c(C(=O)N[C@H]2C(O)O[C@H](CO)[C@@H](O)[C@@H]2O)c(I)c(N(C)C(C)=O)c1I` (stereo partly drawn) [Metrizamide], the “LD50 i.v. in mice” value ([1]; i.v., mice (Aspelin)) is listed as 17300 mg/kg, the “LD50 i.v. in mice” value ([1]; i.v., mice (Salvenson)) is listed as 18600 mg/kg and the “LD50 i.v. in mice” value ([1]; i.v., mice (Sovak)) is listed as 11500 mg/kg. The “LD50 i.v. in mice” value ([1]; i.v., mice (Torsten)) was 15000 mg/kg.

In the case of `O=C(O)C1CCCCN1` (stereo not drawn) [Pipecolinic. Acid], the LD50 intravenous mouse ([1]; intravenous, mouse) is listed as 2200 mg/kg.

In the case of `CC(=O)Nc1c(I)c(NC(C)=O)c(I)c(C(=O)[O-])c1I.[Na+]` [Sodium diatrizoate], the “LD50 i.v. in rats” value ([2]; i.v., rats (Langecker)) is listed as 14700 mg/kg.

For `Cc1cn([C@H]2C[C@H](O)[C@@H](CO)O2)c(=O)[nH]c1=O` [Thymidine], the LD50 intraperitoneal mouse ([1]; mouse, in vivo, ip) is given as 2512 mg/kg.

For Iopromide, the LD50 in mice ([1]; mice, i.v.) is listed as 16.5 g iodine/kg body weight and the LD50 in rats ([2]; rats, i.v.) is listed as 11.4 g iodine/kg body weight.
